Measurements reported in patent US6342516B1, “Phenylazole compounds, process for producing the same and drugs for hyperlipemia” (Nippon Soda Co., Ltd., priority 1998, dated 2002).

System: cholesterol-fed hamsters
Assay: Effect on serum lipids of cholesterol-fed hamsters (serum total cholesterol and triglyceride reduction rate)
Type: in vivo
Conditions: cholesterol-fed Syrian hamsters, oral once a day for 5 days
Method: Pharmacological Test Example 1: Effect on serum lipids of cholesterol-fed hamsters
Syrian hamsters (Std:Syrian, Male, 4 weeks old) were freely fed with chow containing 1% cholesterol and 10% coconut oil for 3 weeks ad libitum.
At the last week of feeding, each of the test compounds was dissolved or suspended in either 0.1% hydrochloric acid solution or 1% polyethylene-hydrogenated castor oil (NIKKOL HCO-60) solution and was orally administrated to hamsters once a day for 5 days. For the hamsters of the control group, only the solvent was orally administered. Then, blood was collected from the abdominal vein under the condition of anesthesia with pentobarbital at 2-4 hours after the last administration, and the serum in the blood was separated. The serum total cholesterol value and the serum triglyceride value were determined by using autobiochemical analyzer with analizing kits, and reduction rate of the serum lipids was determined according to the equation indicated below based on the analyzed values for respective hamster groups.
Serum lipids reduction rate (%)=(Amount of serum lipids of the control group−Amount of serum lipids of the group administrated with the test compound)/Amount of serum lipids of the control group×100

Row | Structure (SMILES) | Serum lipids reduction rate comparing to Control group (%), Means of 3 animals: Total cholesterol (dose 25 mg/kg) | Serum lipids reduction rate comparing to Control group (%), Means of 3 animals: Triglyceride (dose 25 mg/kg) | further results
1 | O=C(Nc1ccc(-n2ccnc2)cc1)C1CCc2ccccc2O1 (racemic) [4-11] | 43% | 47% | 
2 | CC1(C(=O)Nc2ccc(-n3ccnc3)cc2)Cc2ccccc2O1 (racemic) [4-12] | 27% | 41% | 
3 | O=C(Nc1ccc(-n2ccnc2)cc1)C1CCCO1 (racemic) [4-17] |  |  | Serum lipids reduction rate comparing to Control group (%), Means of 3 animals: Total cholesterol (dose 12.5 mg/kg): 35%; Serum lipids reduction rate comparing to Control group (%), Means of 3 animals: Triglyceride (dose 12.5 mg/kg): 53%
4 | O=C(Nc1ccc(-n2ccnc2)cc1)c1cc2ccccc2[nH]1 [4-2] |  |  | Serum lipids reduction rate comparing to Control group (%), Means of 3 animals: Total cholesterol (dose 12.5 mg/kg): 32%; Serum lipids reduction rate comparing to Control group (%), Means of 3 animals: Triglyceride (dose 12.5 mg/kg): 45%
5 | Cn1ccc(C(=O)Nc2ccc(-n3ccnc3)cc2)c1 [4-3] | 75% | 91% | 
6 | Cn1c(C(=O)Nc2ccc(-n3ccnc3)cc2)cc2ccccc21 [4-4] |  |  | Serum lipids reduction rate comparing to Control group (%), Means of 3 animals: Total cholesterol (dose 12.5 mg/kg): 23%; Serum lipids reduction rate comparing to Control group (%), Means of 3 animals: Triglyceride (dose 12.5 mg/kg): 32%
7 | COc1ccc2c(c1)cc(C(=O)Nc1ccc(-n3ccnc3)cc1)n2C [4-6] |  |  | Serum lipids reduction rate comparing to Control group (%), Means of 3 animals: Total cholesterol (dose 12.5 mg/kg): 41%; Serum lipids reduction rate comparing to Control group (%), Means of 3 animals: Triglyceride (dose 12.5 mg/kg): 71%
8 | Cc1ccc2[nH]c(C(=O)Nc3ccc(-n4ccnc4)cc3)cc2c1 [4-7] | 27% | 31% | 
9 | O=C(Nc1ccc(-n2ccnc2)cc1)c1cc2cc(F)ccc2[nH]1 [4-9] | 44% | 61% | 
10 | Cc1cc(C(=O)Nc2ccc(-n3ccnc3)cc2)n(C)n1 [4-14] | 66% | 42% | 
11 | Cc1cc(C(=O)Nc2ccc(-n3ccnc3)cc2)[nH]n1 [4-15] |  |  | Serum lipids reduction rate comparing to Control group (%), Means of 3 animals: Total cholesterol (dose 12.5 mg/kg): 37%; Serum lipids reduction rate comparing to Control group (%), Means of 3 animals: Triglyceride (dose 12.5 mg/kg): 73%
12 | CC(C)(C)c1cc(C(=O)Nc2ccc(-n3ccnc3)cc2)[nH]n1 [4-16] | 34% | 34% | 
13 | CC12CCC(C(=O)Nc3ccc(-n4ccnc4)cc3)(OC1=O)C2(C)C (stereo not drawn) [4-19] | 19% | 50% | 
14 | O=C(Nc1ccc(-n2ccnc2)cc1)c1ccc2c(c1)OCO2 [4-21] | 51% | 57% | 
15 | O=C(Nc1ccc(-n2ccnc2)cc1)c1nccc2ccccc12 [4-22] | 48% | 61% | 
16 | O=C(Nc1ccc(-n2ccnc2)cc1)c1ccccn1 [4-24] |  |  | Serum lipids reduction rate comparing to Control group (%), Means of 3 animals: Total cholesterol (dose 12.5 mg/kg): 30%; Serum lipids reduction rate comparing to Control group (%), Means of 3 animals: Triglyceride (dose 12.5 mg/kg): 25%
17 | O=C(Nc1ccc(-n2ccnc2)cc1)c1ccc(Cl)nc1 [4-25] |  |  | Serum lipids reduction rate comparing to Control group (%), Means of 3 animals: Total cholesterol (dose 12.5 mg/kg): 25%; Serum lipids reduction rate comparing to Control group (%), Means of 3 animals: Triglyceride (dose 12.5 mg/kg): 52%
18 | O=C(Nc1ccc(-n2ccnc2)cc1)c1cccnc1 [4-26] |  |  | Serum lipids reduction rate comparing to Control group (%), Means of 3 animals: Total cholesterol (dose 6.25 mg/kg): 22%; Serum lipids reduction rate comparing to Control group (%), Means of 3 animals: Triglyceride (dose 6.25 mg/kg): 48%
19 | O=C(Nc1ccc(-n2ccnc2)cc1)c1ccncc1 [4-27] | 40% | 46% | 
20 | CC(C)c1cc(C(=O)Nc2ccc(-n3ccnc3)cc2)cc(O)n1 [4-28] |  |  | Serum lipids reduction rate comparing to Control group (%), Means of 3 animals: Total cholesterol (dose 12.5 mg/kg): 24%; Serum lipids reduction rate comparing to Control group (%), Means of 3 animals: Triglyceride (dose 12.5 mg/kg): 34%
21 | O=C(Nc1ccc(-n2ccnc2)cc1)c1cc2ccccc2o1 [4-31] | 46% | 59% | 
22 | O=C(Nc1ccc(-n2ccnc2)cc1)C1CCOCC1 [4-32] | 58% | 68% | 
23 | O=C(Nc1ccc(-n2ccnc2)cc1)c1cnccn1 [4-33] |  |  | Serum lipids reduction rate comparing to Control group (%), Means of 3 animals: Total cholesterol (dose 12.5 mg/kg): 35%; Serum lipids reduction rate comparing to Control group (%), Means of 3 animals: Triglyceride (dose 12.5 mg/kg): 44%
24 | O=C(Nc1ccc(-n2ccnc2)cc1)c1n[nH]c2ccccc12 [4-34] | 37% | 39% | 

Row | Structure (SMILES) | Serum lipids reduction rate comparing to Control group (%), Means of 3 animals: Total cholesterol (dose 25 mg/kg) | Serum lipids reduction rate comparing to Control group (%), Means of 3 animals: Triglyceride (dose 25 mg/kg) | further results
25 | O=C(Nc1ccc(-n2ccnc2)cc1)c1cnc2ccccc2n1 [4-37] |  |  | Serum lipids reduction rate comparing to Control group (%), Means of 3 animals: Total cholesterol (dose 12.5 mg/kg): 26%; Serum lipids reduction rate comparing to Control group (%), Means of 3 animals: Triglyceride (dose 12.5 mg/kg): 25%
26 | O=C(Nc1ccc(-n2ccnc2)cc1)c1ccc[nH]1 [4-38] |  |  | Serum lipids reduction rate comparing to Control group (%), Means of 3 animals: Total cholesterol (dose 12.5 mg/kg): 32%; Serum lipids reduction rate comparing to Control group (%), Means of 3 animals: Triglyceride (dose 12.5 mg/kg): 31%
27 | Cn1cccc1C(=O)Nc1ccc(-n2ccnc2)cc1 [4-39] | 25% | 45% | 
28 | O=C(Nc1ccc(-n2ccnc2)cc1)c1ccc2ccccc2n1 [4-41] | 50% | 67% | 
29 | O=C(Nc1ccc(-n2ccnc2)cc1)c1ccc2ccc(O)nc2c1 [4-44] | 21% | 31% | 
30 | O=C1CCC(C(=O)Nc2ccc(-n3ccnc3)cc2)=NN1 [4-46] | 52% | 45% | 
31 | O=C(Nc1ccc(-n2ccnc2)cc1)c1ccco1 [4-48] | 76% | 85% | 
32 | Cc1c(C(=O)Nc2ccc(-n3ccnc3)cc2)oc2ccccc12 [4-62] | 42% | 59% | 
33 | COc1cccc2cc(C(=O)Nc3ccc(-n4ccnc4)cc3)oc12 [4-63] | 26% | 29% | 
34 | O=C(Nc1ccc(-n2ccnc2)cc1)c1cnc2ccccc2c1 [4-66] | 55% | 66% | 
35 | O=C(Nc1ccc(-n2ccnc2)cc1)C1COc2ccccc2O1 (stereo not drawn) [4-70] | 34% | 48% | 
36 | Cc1ccc2ccc(C(=O)Nc3ccc(-n4ccnc4)cc3)cn12 [4-71] | 45% | 62% | 
37 | O=C(CC1CCc2sccc2C1=O)Nc1ccc(-n2ccnc2)cc1 (stereo not drawn) [4-72] | 37% | 53% | 
38 | O=C(COc1ccc2ncccc2c1)Nc1ccc(-n2ccnc2)cc1 [4-73] | 34% | 50% | 
39 | O=C(COc1cnc2ccccc2n1)Nc1ccc(-n2ccnc2)cc1 [4-79] |  |  | Serum lipids reduction rate comparing to Control group (%), Means of 3 animals: Total cholesterol (dose 12.5 mg/kg): 29%; Serum lipids reduction rate comparing to Control group (%), Means of 3 animals: Triglyceride (dose 12.5 mg/kg): 45%
40 | O=C(COc1ccc2c(c1)OCO2)Nc1ccc(-n2ccnc2)cc1 [4-80] | 40% | 52% | 
41 | O=C(COc1nc2c(c(C(F)(F)F)n1)CCO2)Nc1ccc(-n2ccnc2)cc1 [4-81] |  |  | Serum lipids reduction rate comparing to Control group (%), Means of 3 animals: Total cholesterol (dose 12.5 mg/kg): 22%; Serum lipids reduction rate comparing to Control group (%), Means of 3 animals: Triglyceride (dose 12.5 mg/kg): 43%
42 | O=C(CSc1cnccn1)Nc1ccc(-n2ccnc2)cc1 [4-87] | 34% | 37% | 
43 | Cc1cc(=O)oc2cc(OCC(=O)Nc3ccc(-n4ccnc4)cc3)ccc12 [4-88] | 39% | 53% | 
44 | O=C(CCc1cccnc1)Nc1ccc(-n2ccnc2)cc1 [4-90] | 22% | 36% | 
45 | O=C(Cn1c(=O)ccc2ccccc21)Nc1ccc(-c2ccn[nH]2)cc1 [4-91] | 37% | 48% | 
46 | O=C(CN1C(=O)COc2ccccc21)Nc1ccc(-c2cn[nH]c2)cc1 [4-92] | 29% | 34% | 
47 | O=C(COc1ccc2ccccc2n1)Nc1ccc(-n2ccnc2)cc1 [4-96] | 36% | 50% | 
48 | Cn1c(CCC(=O)Nc2ccc(-n3ccnc3)cc2)nc2ccccc21 [4-97] |  |  | Serum lipids reduction rate comparing to Control group (%), Means of 3 animals: Total cholesterol (dose 12.5 mg/kg): 26%; Serum lipids reduction rate comparing to Control group (%), Means of 3 animals: Triglyceride (dose 12.5 mg/kg): 33%
